# Assay results reported in PubChem BioAssay AID1259411 (Chemical Carcinogenesis Research Information System (CCRIS), 2018).
# Calls of active or inactive are those of the source. No rule for the calls is given here.
# System: rodent carcinogenicity bioassays, tumor incidence
# Experiment: CCRIS carcinogenicity studies
# How it was run: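 Archive of carcinogenicity, mutagenicity, tumor promotion and tumor inhibition results drawn from journals, NCI reports and other sources, expert-reviewed; covers 1985-2011 and is no longer updated.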
compound,measurement,setting,value
O=C1NC(=O)C(c2ccccc2)(c2ccccc2)N1,carcinogen call,"Species: MOUSE, Route: INTRAPERITONEAL, ORAL, Tumor Site: Type of Lesion: HEMATOPOIETIC SYSTEM (LEUKEMIA), LYMPHATIC SYSTEM: LYMPHOMA",active; positive
same,carcinogen call,"Species: MOUSE, Strain/Sex: B6C3F1/FEMALE, Route: IN UTERO, ORAL, Dose: 0, 21 PPM IN DIET FED TO MOTHERS 1 WK BEFORE BREEDING, THROUGH BREEDING, GESTATION AND LACTATION, THEN DIETS WITH 60 PPM",inactive; negative
same,carcinogen call,"Species: MOUSE, Strain/Sex: B6C3F1/FEMALE, Route: IN UTERO, ORAL, Dose: 0, 70 PPM IN DIET FED TO MOTHERS 1 WK BEFORE BREEDING, THROUGH BREEDING, GESTATION AND LACTATION, THEN DIETS WITH 200 PP",inactive; negative
same,carcinogen call,"Species: MOUSE, Strain/Sex: B6C3F1/FEMALE, Route: IN UTERO, ORAL, Dose: 0, 210 PPM IN DIET FED TO MOTHERS 1 WK BEFORE BREEDING, THROUGH BREEDING, GESTATION AND LACTATION, THEN DIETS WITH 0, 20, Tumor Site: Type of Lesion: LIVER: HEPATOCELLULAR ADENOMA, HEPATOCELLULAR CARCINOMA",active; positive
same,carcinogen call,"Species: MOUSE, Strain/Sex: B6C3F1/FEMALE, Route: ORAL, Dose: 0, 200, 600 PPM IN DIET FOR 2 YR (STUDY DURATION: 2 YR), Dose: 0, 200, 600 PPM IN DIET FOR 2 YR (STUDY DURATION: 2 YR), Tumor Site: Type of Lesion: LIVER: HEPATOCELLULAR ADENOMA, HEPATOCELLULAR CARCINOMA",active; positive
same,carcinogen call,"Species: MOUSE, Strain/Sex: B6C3F1/MALE, Route: IN UTERO, ORAL, Dose: 0, 21 PPM IN DIET FED TO MOTHERS 1 WK BEFORE BREEDING, THROUGH BREEDING, GESTATION AND LACTATION, THEN DIETS WITH 30 PPM",inactive; negative
same,carcinogen call,"Species: MOUSE, Strain/Sex: B6C3F1/MALE, Route: IN UTERO, ORAL, Dose: 0, 70 PPM IN DIET FED TO MOTHERS 1 WK BEFORE BREEDING, THROUGH BREEDING, GESTATION AND LACTATION, THEN DIETS WITH 100 PP",inactive; negative
same,carcinogen call,"Species: MOUSE, Strain/Sex: B6C3F1/MALE, Route: IN UTERO, ORAL, Dose: 0, 210 PPM IN DIET FED TO MOTHERS 1 WK BEFORE BREEDING, THROUGH BREEDING, GESTATION AND LACTATION, THEN DIETS WITH 0, 10",inactive; negative
same,carcinogen call,"Species: MOUSE, Strain/Sex: B6C3F1/MALE, Route: ORAL, Dose: 0, 100, 300 PPM IN DIET FOR 2 YR (STUDY DURATION: 2 YR), Dose: 0, 100, 300 PPM IN DIET FOR 2 YR (STUDY DURATION: 2 YR)",inactive; negative
same,carcinogen call,"Species: RAT, Strain/Sex: F344/DUCRJ/FEMALE, Route: ORAL, Dose: 0, 0.025, 0.05% IN BASAL DIET FOR 2 YR (STUDY DURATION: 112 WK), Dose: 0, 0.025, 0.05% IN BASAL DIET FOR 2 YR (STUDY DURATION: 112 WK)",inactive; negative
same,carcinogen call,"Species: RAT, Strain/Sex: F344/DUCRJ/MALE, Route: ORAL, Dose: 0, 0.025, 0.05% IN BASAL DIET FOR 2 YR (STUDY DURATION: 112 WK), Dose: 0, 0.025, 0.05% IN BASAL DIET FOR 2 YR (STUDY DURATION: 112 WK)",inactive; negative
same,carcinogen call,"Species: RAT, Strain/Sex: F344/FEMALE, Route: IN UTERO, ORAL, Dose: 0, 63 PPM IN DIET FED TO MOTHERS 1 WK BEFORE BREEDING, THROUGH BREEDING, GESTATION AND LACTATION, THEN DIETS WITH 240 PP",inactive; negative
same,carcinogen call,"Species: RAT, Strain/Sex: F344/FEMALE, Route: IN UTERO, ORAL, Dose: 0, 210 PPM IN DIET FED TO MOTHERS 1 WK BEFORE BREEDING, THROUGH BREEDING, GESTATION AND LACTATION, THEN DIETS WITH 800 P",inactive; negative
same,carcinogen call,"Species: RAT, Strain/Sex: F344/FEMALE, Route: IN UTERO, ORAL, Dose: 0, 630 PPM IN DIET FED TO MOTHERS 1 WK BEFORE BREEDING, THROUGH BREEDING, GESTATION AND LACTATION, THEN DIETS WITH 0, 80",inactive; negative
same,carcinogen call,"Species: RAT, Strain/Sex: F344/FEMALE, Route: ORAL, Dose: 0, 800, 2400 PPM IN DIET FOR 2 YR (STUDY DURATION: 2 YR), Dose: 0, 800, 2400 PPM IN DIET FOR 2 YR (STUDY DURATION: 2 YR)",inactive; negative
same,carcinogen call,"Species: RAT, Strain/Sex: F344/MALE, Route: IN UTERO, ORAL, Dose: 0, 63 PPM IN DIET FED TO MOTHERS 1 WK BEFORE BREEDING, THROUGH BREEDING, GESTATION AND LACTATION, THEN DIETS WITH 240 PP",inactive; negative
same,carcinogen call,"Species: RAT, Strain/Sex: F344/MALE, Route: IN UTERO, ORAL, Dose: 0, 210 PPM IN DIET FED TO MOTHERS 1 WK BEFORE BREEDING, THROUGH BREEDING, GESTATION AND LACTATION, THEN DIETS WITH 800 P",inactive; negative
same,carcinogen call,"Species: RAT, Strain/Sex: F344/MALE, Route: IN UTERO, ORAL, Dose: 0, 630 PPM IN DIET FED TO MOTHERS 1 WK BEFORE BREEDING, THROUGH BREEDING, GESTATION AND LACTATION, THEN DIETS WITH 0, 80",inactive; negative
same,carcinogen call,"Species: RAT, Strain/Sex: F344/MALE, Route: ORAL, Dose: 0, 800, 2400 PPM IN DIET FOR 2 YR (STUDY DURATION: 2 YR), Dose: 0, 800, 2400 PPM IN DIET FOR 2 YR (STUDY DURATION: 2 YR), Tumor Site: Type of Lesion: LIVER: HEPATOCELLULAR ADENOMA OR CARCINOMA",equivocal
CC1=NN(c2ccccc2)C(=O)C1,carcinogen call,"Species: MOUSE, Strain/Sex: B6C3F1/FEMALE, Route: ORAL, Dose: 0, 7500, 15000 PPM IN DIET, Dose: 0, 7500, 15000 PPM IN DIET",inactive; negative
same,carcinogen call,"Species: MOUSE, Strain/Sex: B6C3F1/MALE, Route: ORAL, Dose: 0, 7500, 15000 PPM IN DIET, Dose: 0, 7500, 15000 PPM IN DIET",inactive; negative
same,carcinogen call,"Species: RAT, Strain/Sex: F344/FEMALE, Route: ORAL, Dose: 0, 2500, 5000 PPM IN DIET, Dose: 0, 2500, 5000 PPM IN DIET",inactive; negative
same,carcinogen call,"Species: RAT, Strain/Sex: F344/MALE, Route: ORAL, Dose: 0, 2500, 5000 PPM IN DIET, Dose: 0, 2500, 5000 PPM IN DIET",inactive; negative
Nc1ccc(N)cc1,carcinogen call,"Species: MOUSE, Strain/Sex: B6C3F1/FEMALE, Route: ORAL, Dose: 0, 625, 1250 PPM IN DIET, Dose: 0, 625, 1250 PPM IN DIET",inactive; negative
same,carcinogen call,"Species: MOUSE, Strain/Sex: B6C3F1/MALE, Route: ORAL, Dose: 0, 625, 1250 PPM IN DIET, Dose: 0, 625, 1250 PPM IN DIET",inactive; negative
same,carcinogen call,"Species: RAT, Strain/Sex: F344/FEMALE, Route: ORAL, Dose: 0, 625, 1250 PPM IN DIET, Dose: 0, 625, 1250 PPM IN DIET",inactive; negative
same,carcinogen call,"Species: RAT, Strain/Sex: F344/MALE, Route: ORAL, Dose: 0, 625, 1250 PPM IN DIET, Dose: 0, 625, 1250 PPM IN DIET",inactive; negative
CC1=CC(O)=NS(=O)(=O)O1,carcinogen call,"Species: MOUSE, Strain/Sex: SWISS/FEMALE, Route: ORAL, Dose: 0, 3000, 10000, 30000 PPM IN DIET FOR 80 WK (STUDY DURATION: 80 WK), Dose: 0, 3000, 10000, 30000 PPM IN DIET FOR 80 WK (STUDY DURATION: 80 WK)",inactive; negative
same,carcinogen call,"Species: MOUSE, Strain/Sex: SWISS/MALE, Route: ORAL, Dose: 0, 3000, 10000, 30000 PPM IN DIET FOR 80 WK (STUDY DURATION: 80 WK), Dose: 0, 3000, 10000, 30000 PPM IN DIET FOR 80 WK (STUDY DURATION: 80 WK)",inactive; negative
same,carcinogen call,"Species: RAT, Strain/Sex: CPB-WK SPF/FEMALE, Route: ORAL, Dose: 0, 3000, 10000, 30000 PPM IN DIET FOR 113 WK (STUDY DURATION: 113 WK), Dose: 0, 3000, 10000, 30000 PPM IN DIET FOR 113 WK (STUDY DURATION: 113 WK)",inactive; negative
same,carcinogen call,"Species: RAT, Strain/Sex: CPB-WK SPF/MALE, Route: ORAL, Dose: 0, 3000, 10000, 30000 PPM IN DIET FOR 120 WK (STUDY DURATION: 120 WK), Dose: 0, 3000, 10000, 30000 PPM IN DIET FOR 120 WK (STUDY DURATION: 120 WK)",inactive; negative
CN(N=O)C1CCCCC1,carcinogen call,"Species: HAMSTER, Strain/Sex: SYRIAN/FEMALE, Route: GAVAGE, Dose: 0, 2.5 MG/KG 1/WK FOR 50 WK (TOTAL DOSE: 0; 0.9 MMOL) (STUDY DURATION: LIFETIME), Dose: 0, 2.5 MG/KG 1/WK FOR 50 WK (TOTAL DOSE: 0; 0.9 MMOL) (STUDY DURATION: LIFETIME)",inactive; negative
same,carcinogen call,"Species: HAMSTER, Strain/Sex: SYRIAN/MALE, Route: GAVAGE, Dose: 0, 2.5 MG/KG 1/WK FOR 50 WK (TOTAL DOSE: 0; 0.9 MMOL) (STUDY DURATION: LIFETIME), Dose: 0, 2.5 MG/KG 1/WK FOR 50 WK (TOTAL DOSE: 0; 0.9 MMOL) (STUDY DURATION: LIFETIME), Tumor Site: Type of Lesion: LUNG: ALVEOLAR/BRONCHIAL ADENOMA, ADENOSQUAMOUS CARCINOMA",active; positive
